# Entries after “also recorded” stand apart in the source; their conditions may differ.
# Tested on: human MDA-MB-231 breast tumor cells
# Test: cGMP assay (intracellular cGMP, immunoassay)
# Type: cell-based
# Details: treated for 30 minutes, FIG. 1
# Procedure: FIG. 1A illustrates the induction of intracellular cGMP levels in cultured human MDA-MB-231 breast tumor cells treated for 30 minutes with compound 2f. […] The + indicates the effects of a positive control, sulindac sulfide tested at 100 μM. The cells were treated for 30 minutes prior to measuring intracellular cGMP levels by immunoassay. The * indicates statistical significance with p<0.05.
# Cells were seeded at a density of 1×10^6 cells per 10 cm tissue culture dish, incubated for 48 hours, and treated with the specified compound or vehicle control. After 30 minutes of treatment, cells were lysed and assayed for cGMP content using the cGMP Direct Biotrak EIA kit (GE Biosciences). The assay was performed according to the manufacturer's specifications. Optical density was measured at 630 nm using a Synergy4 (BioTek) plate reader.
smiles,measurement,value
"COC(=O)[C@H]1Cc2c([nH]c3ccccc23)[C@H](c2cc(OC)ccc2OC)N1C(=O)CCl [Compound 2f, Methyl (1S,3R)-1-(2,5-dimethoxyphenyl)-2-(2-chloroacetyl)-2,3,4,9-tetrahydro-1H-β-carboline-3-carboxylate]",intracellular cGMP levels,induction; also recorded: increase
